≈ marks a conversion by molar mass, not a printed value.
How the values were obtained:
keratinocyte = settings: cited from earlier work
[1] = Test Example 1: Solubility in various organic solvents; format: physicochemical; settings: for solubility at 24 h: organic solvent or mixture, thermodynamic from solid; for solubility at 24 h / Solubility: stirred for 24 hours
Protocol: The α-form crystal (about 100 mg) or the β-form crystal (about 100 mg) was suspended in various organic solvents (about 1 mL) and stirred for 24 hours. Impurities were filtered off using a membrane filter and the filtrate was analyzed by HPLC to determine the solubility.

[2] = Test Example 2: Physical Stability (mixed α/β crystals stirred in solvent, crystal form by infrared absorption spectrum); format: physicochemical
Protocol: The α-form crystal (1 part by weight) and the β-form crystal (1 part by weight) were mixed, suspended in a solvent (ethyl acetate/ethanol=5/1.5 parts by weight) and stirred at 26, 70 or 100° C.
Sampling was carried out over time and crystal forms were measured by the infrared absorption spectrum.

[3] = Test Example 3: Hygroscopicity (rate of weight change and crystal form); format: physicochemical; settings: for Stability (hygroscopicity test): 25° C., relative humidity of 75 or 97%
Protocol: The α-form crystal and the β-form crystal were preserved under the conditions of 25° C. and a relative humidity of 75 or 97%.
Sampling was carried out over time and the weights of crystals were measured to determine rates of weight changes. Additionally, crystal forms were measured by the infrared absorption spectrum.
Rate of weight change (%)=((B−A)/A)×100
A: Crystal weight before the test started
B: Crystal weight after the test started

[4] = Test Example 4: Stability (HPLC purity and crystal form on storage); format: physicochemical; settings: for Purity (%): HPLC
Protocol: The α-form crystal and the β-form crystal were preserved under the conditions of 40 or 60° C. and a relative humidity of 75%.
Twelve weeks after the test started, the purity was measured by HPLC. Additionally, crystal forms were measured by the infrared absorption spectrum.
HPLC Measurement conditions
Measurement wavelength: 270 nm
Column: Ascentis Express C18, inner diameter 3.0 mm×length 150 mm
Column temperature: 40° C.
Mobile phase: 0.1% phosphoric acid/(acetonitrile/water=60/40) solution

SMILES | Crystal form ([3]; 25° C. 75% RH, 0 hr) | Rate of weight change (%) ([3]; 25° C. 75% RH, 0 hr) | Crystal form ([3]; 25° C. 75% RH, 2 weeks) | Rate of weight change (%) ([3]; 25° C. 75% RH, 2 weeks) | Crystal form ([3]; 25° C. 75% RH, 4 weeks) | Rate of weight change (%) ([3]; 25° C. 75% RH, 4 weeks) | Crystal form ([3]; 25° C. 75% RH, 8 weeks) | Rate of weight change (%) ([3]; 25° C. 75% RH, 8 weeks) | Crystal form ([3]; 25° C. 75% RH, 12 weeks) | Rate of weight change (%) ([3]; 25° C. 75% RH, 12 weeks) | Crystal form ([3]; 25° C. 97% RH, 0 hr) | Rate of weight change (%) ([3]; 25° C. 97% RH, 0 hr) | Crystal form ([3]; 25° C. 97% RH, 2 weeks) | Rate of weight change (%) ([3]; 25° C. 97% RH, 2 weeks) | Crystal form ([3]; 25° C. 97% RH, 4 weeks) | Rate of weight change (%) ([3]; 25° C. 97% RH, 4 weeks) | Crystal form ([3]; 25° C. 97% RH, 8 weeks) | Rate of weight change (%) ([3]; 25° C. 97% RH, 8 weeks) | Crystal form ([3]; 25° C. 97% RH, 12 weeks) | Rate of weight change (%) ([3]; 25° C. 97% RH, 12 weeks) | further results
O=C(O)c1cc(C2CC2)cnc1Nc1ccc2c(ccn2Cc2cccc(F)c2)c1 [Compound A, 5-Cyclopropyl-2-((1-(3-fluorobenzyl)-1H-indol-5-yl)amino)nicotinic acid] |  |  |  |  |  |  |  |  |  |  |  |  |  |  |  |  |  |  |  |  | Antiproliferative activity on keratinocyte (keratinocyte): excellent antiproliferative activity on keratinocyte
O=C(O)c1cc(C2CC2)cnc1Nc1ccc2c(ccn2Cc2cccc(F)c2)c1 [α-Form crystal, 5-cyclopropyl-2-((1-(3-fluorobenzyl)-1H-indol-5-yl)amino)nicotinic acid] | α | 0.00% | α | 0.08% | α | 0.08% | α | 0.24% | α | 0.22% | α | 0.00% | α | 0.13% | α | 0.17% | α | 0.38% | α | 0.32% | solubility at 24 h ([1]; 2-propanol): 3.5 mg/mL (≈ 8.72 mM); solubility at 24 h ([1]; acetone): 55 mg/mL (≈ 137 mM); solubility at 24 h ([1]; acetonitrile): 3.1 mg/mL (≈ 7.72 mM); solubility at 24 h ([1]; ethanol): 8.8 mg/mL (≈ 21.9 mM); solubility at 24 h ([1]; ethyl acetate): 19.7 mg/mL (≈ 49.1 mM); solubility at 24 h ([1]; isopropyl acetate): 11.5 mg/mL (≈ 28.6 mM); solubility at 24 h ([1]; methyl ethyl ketone): 63.1 mg/mL (≈ 157 mM); solubility at 24 h ([1]; methyl tert-butyl ether): 10.1 mg/mL (≈ 25.2 mM); Crystal transition ([2]; mixed crystals stirred at 26, 70 or 100° C.): transitioned to the β-form crystal; Stability (hygroscopicity test) [3]: stable; Crystal form ([4]; 40° C. 75% RH, 0 hr): α; Purity (%) ([4]; 40° C. 75% RH, 0 hr): 99.4%; Crystal form ([4]; 40° C. 75% RH, 12 weeks): α; Purity (%) ([4]; 40° C. 75% RH, 12 weeks): 99.5%; Crystal form ([4]; 60° C. 75% RH, 0 hr): α; Purity (%) ([4]; 60° C. 75% RH, 0 hr): 99.4%; Crystal form ([4]; 60° C. 75% RH, 12 weeks): α; Purity (%) ([4]; 60° C. 75% RH, 12 weeks): 99.5%
O=C(O)c1cc(C2CC2)cnc1Nc1ccc2c(ccn2Cc2cccc(F)c2)c1 [β-Form crystal, 5-cyclopropyl-2-((1-(3-fluorobenzyl)-1H-indol-5-yl)amino)nicotinic acid] | β | 0.00% | β | 0.07% | β | 0.07% | β | 0.20% | β | 0.18% | β | 0.00% | β | 0.10% | β | 0.11% | β | 0.26% | β | 0.25% | Solubility ([1]; 2-Propanol): 3.0 mg/mL (≈ 7.47 mM); Solubility ([1]; Acetone): 48.9 mg/mL (≈ 122 mM); Solubility ([1]; Acetonitrile): 2.7 mg/mL (≈ 6.73 mM); Solubility ([1]; Ethanol): 6.8 mg/mL (≈ 16.9 mM); Solubility ([1]; Ethyl acetate): 16.8 mg/mL (≈ 41.8 mM); Solubility ([1]; Isopropyl acetate): 9.8 mg/mL (≈ 24.4 mM); Solubility ([1]; Methyl ethyl ketone): 55.3 mg/mL (≈ 138 mM); Solubility ([1]; Methyl tert-butyl ether): 8.1 mg/mL (≈ 20.2 mM); Relative stability of crystal forms ([1]; concluded from solubility): more stable than the α-form crystal; Solubility compared between crystal forms ([1]; various organic solvents): lower than the solubility of the α-form crystal; Relative stability of crystal forms ([2]; concluded from crystal transition in suspension): more stable than the α-form crystal; Stability (hygroscopicity test) [3]: stable; Crystal form ([4]; 40° C. 75% RH, 0 hr): β; Purity (%) ([4]; 40° C. 75% RH, 0 hr): 99.6%; Crystal form ([4]; 40° C. 75% RH, 12 weeks): β; Purity (%) ([4]; 40° C. 75% RH, 12 weeks): 99.7%; Crystal form ([4]; 60° C. 75% RH, 0 hr): β; Purity (%) ([4]; 60° C. 75% RH, 0 hr): 99.6%; Crystal form ([4]; 60° C. 75% RH, 12 weeks): β; Purity (%) ([4]; 60° C. 75% RH, 12 weeks): 99.7%

From patent publication US10174001B2, “Crystals of 5-cyclopropyl-2-((1-(3-fluorobenzyl)-1H-indol-5-yl)amino)nicotinic acid” (FUJIFILM Toyama Chemical Co., Ltd., priority 2015, dated 2019)
